Results: patent publication US20240252650A1, “LIPID COMPOUNDS AND LIPID NANOPARTICLE COMPOSITIONS” (SUZHOU ABOGEN BIOSCIENCES CO., LTD., priority 2021, published 2024)

What was measured:
Assay type in all cases: physicochemical
[1] = Encapsulation efficiency of lipid nanoparticles (Quant-it Ribogreen RNA quantification assay); conditions: LNP encapsulating hEPO mRNA; table of Example 16
Experimental: (§1) Briefly, a cationic lipid provided herein, DSPC, cholesterol, and PEG-lipid were solubilized in ethanol at a molar ratio of 50:10:38.5:1.5, and mRNA were diluted in 10 to 50 mM citrate buffer, pH=4. The LNPs were prepared at a total lipid to mRNA weight ratio of approximately 10:1 to 30:1 by mixing the ethanolic lipid solution with the aqueous mRNA solution at a volume ratio of 1:3 using a microfluidic apparatus, total flow rate ranging from 9-30 mL/min. Ethanol were thereby removed and replaced by DPBS using dialysis. Finally, the lipid nanoparticles were filtered through a 0.2 μm sterile filter.
(§2) Lipid nanoparticle size were determined by dynamic light scattering using a Malvern Zetasizer Nano ZS (Malvern UK) using a 173° backscatter detection mode. The encapsulation efficiency of lipid nanoparticles were determined using a Quant-it Ribogreen RNA quantification assay kit (Thermo Fisher Scientific, UK) according to the manufacturer's instructions.

[2] = Lipid nanoparticle size and polydispersity by dynamic light scattering (Malvern Zetasizer Nano ZS); conditions: LNP encapsulating hEPO mRNA; table of Example 16
Experimental: as §1, §2

[3] = Apparent pKa of LNP formulations by TNS fluorescence assay; conditions: LNP cationic lipid/DSPC/cholesterol/DMG-PEG 50/10/38.5/1.5 mol %, table of Example 16
Experimental: As reported in literature, the apparent pKa of LNP formulations correlates with the delivery efficiency of LNPs for nucleic acids in vivo. The apparent pKa of each formulation was determined using an assay based on fluorescence of 2-(p-toluidino)-6-napthalene sulfonic acid (TNS). LNP formulations comprising of cationic lipid/DSPC/cholesterol/DMG-PEG (50/10/38.5/1.5 mol %) in PBS were prepared as described above. TNS was prepared as a 300 uM stock solution in distilled water. LNP formulations were diluted to 0.1 mg/ml total lipid in 3 mL of buffered solutions containing 50 mM sodium citrate, 50 mM sodium phosphate, 50 mM sodium borate, and 30 mM sodium chloride where the pH ranged from 3 to 9. An aliquot of the TNS solution was added to give a final concentration of 0.1 mg/ml and following vortex mixing fluorescence intensity was measured at room temperature in a Molecular Devices Spectramax iD3 spectrometer using excitation and mission wavelengths of 325 nm and 435 nm. A sigmoidal best fit analysis was applied to the fluorescence data and the pKa value was measured as the pH giving rise to half-maximal fluorescent intensity.

Encapsulation Efficiency [1] | polydispersity [2] | size (nm) [2] | Apparant Pka [3] | Compound
93.04% | 0.043 | 90.47 nm |  | CCCCCCCCCCCC(=O)OCC(COC(=O)CCCC(COC(=O)CCCCCCC)COC(=O)CCCCCCC)COC(=O)CCN(CCO)C1CCC1 (centres unmarked) [Compound 15]
91.54% | 0.02588 | 67.27 nm | 6.535 | CCCCCCCCC(CCCCCCCC)COC(=O)CCOCC(COCCC(=O)OCC(CCCCCCCC)CCCCCCCC)COC(=O)CCCCN(CCO)C1CCC1 [Compound 100]
 |  |  | 6.812 | CCCCCCCC(=O)OCC(CCCC(=O)OCC(COC(=O)CCCCCCC)COC(=O)CCCCCCCN(CCO)C1CCC1)COC(=O)CCCCCCC (centres unmarked) [Compound 44]
89.61% | 0.04979 | 66.11 nm | 6.441 | CCCCC/C=C\C/C=C\CCCCCCCC(=O)OCC(COC(=O)CCCC(COC(=O)CCCCCCC)COC(=O)CCCCCCC)OC(=O)CCCCN(CCO)C1CCCCC1 (centres unmarked) [Compound 107]
91.68% | 0.158 | 89.62 nm | 7.175 | CCCCCCCCCCC(=O)OCC(COC(=O)CCCCCCN(CCO)C1CCC1)COC(=O)CCCC(COC(=O)CCCCCCC)COC(=O)CCCCCCC (centres unmarked) [Compound 50]
89.48% | 0.047 | 77.60 nm | 5.56 | CCCCC/C=C\C/C=C\CCCCCCCC(=O)OCC(COC(=O)CCCC(COC(=O)CCCCCCC)COC(=O)CCCCCCC)COC(=O)CCN(CCO)C1CCC1 (centres unmarked) [Compound 1]
84.36% | 0.079 | 117 nm | 7.016 | CCCCCCCCC(=O)OCC(COC(=O)CCCCCCN(CCO)C1CCC1)COC(=O)CCCC(COC(=O)CCCCCCC)COC(=O)CCCCCCC (centres unmarked) [Compound 57]
 |  |  | 6.858 | CCCCCCCCCC(=O)OCC(COC(=O)CCCCCCCN(CCO)C1CCC1)COC(=O)CCCC(COC(=O)CCCCCCC)COC(=O)CCCCCCC (centres unmarked) [Compound 80]
 |  |  | 6.192 | C/C=C/CN(CCO)CCCOC(=O)OCC(COC(=O)CCCCCCC/C=C\C/C=C\CCCCC)COC(=O)CCCC(COC(=O)CCCCCCC)COC(=O)CCCCCCC (centres unmarked) [Compound 94]
 |  |  | 7.041 | CCCCCCCCCCCC(=O)OCC(COC(=O)CCCCCCCN(CCO)C1CCC1)COC(=O)CCCC(COC(=O)CCCCCCC)COC(=O)CCCCCCC (centres unmarked) [Compound 52]
93.62% | 0.034 | 99.16 nm | 6.384 | CCCCC/C=C\C/C=C\CCCCCCCC(=O)OCC(COC(=O)CCCC(COC(=O)CCCCCCC)COC(=O)CCCCCCC)COC(=O)OCCCN(CCC)CCO (centres unmarked) [Compound 87]
91.42% | 0.090 | 93.73 nm | 6.881 | CCCCC/C=C\C/C=C\CCCCCCCC(=O)OCC(COC(=O)CCCCN(CCO)C1CCC1)COC(=O)CCCC(COC(=O)CCCCCCC)COC(=O)CCCCCCC (centres unmarked) [Compound 4]
89.77% | 0.06244 | 80.11 nm | 6.262 | CCCCC/C=C\C/C=C\CCCCCCCC(=O)OCC(COC(=O)CCCC(COC(=O)CCCCCCC)COC(=O)CCCCCCC)COC(=O)OCCCN(CCO)CCCC (centres unmarked) [Compound 105]
78.25% | 0.031 | 84.24 nm | 6.915 | CCCCCCCCCCCCC(=O)OCC(COC(=O)CCCCN(CCO)C1CCC1)COC(=O)CCCC(COC(=O)CCCCCCC)COC(=O)CCCCCCC (centres unmarked) [Compound 18]
90.08% | 0.067 | 144.2 nm | 6.965 | CCCCCCCCC(=O)OCC(COC(=O)CCCCCN(CCO)C1CCC1)COC(=O)CCCC(COC(=O)CCCCCCC)COC(=O)CCCCCCC (centres unmarked) [Compound 45]
 |  |  | 7.232 | CCCCCCCCCCCCCCCCCC(=O)OCC(COC(=O)CCCCN(CCC)CCO)COC(=O)CCCC(COC(=O)CCCCCCC)COC(=O)CCCCCCC (centres unmarked) [Compound 83]
 |  |  | 6.349 | CCCCCCCCC(=O)OCC(COC(=O)CCCC(COC(=O)CCCCCCC)COC(=O)CCCCCCC)COC(=O)OCCCN(CCO)C1CCC1 (centres unmarked) [Compound 67]
 |  |  | 6.999 | CCCCCCCCCCCCC(=O)OCC(COC(=O)CCCCCN(CCO)C1CCC1)COC(=O)CCCC(COC(=O)CCCCCCC)COC(=O)CCCCCCC (centres unmarked) [Compound 63]

Encapsulation Efficiency [1] | polydispersity [2] | size (nm) [2] | Apparant Pka [3] | Compound
89.00% | 0.049 | 82.63 nm | 6.307 | CCCCC/C=C\C/C=C\CCCCCCCC(=O)OCC(COC(=O)CCCC(COC(=O)CCCCCCC)COC(=O)CCCCCCC)COC(=O)OCCCN(CCO)C1CCC1 (centres unmarked) [Compound 34]
87.35% | 0.196 | 105.4 nm | 6.837 | CCCCCCCCCCCCC(=O)OCC(COC(=O)CCCCCCN(CCO)C1CCC1)COC(=O)CCCC(COC(=O)CCCCCCC)COC(=O)CCCCCCC (centres unmarked) [Compound 64]
81.79% | 0.096 | 53.68 nm |  | CCCCC/C=C\C/C=C\CCCCCCCC(=O)OCC(COC(=O)CCCC(COC(=O)CCCCCCC)COC(=O)CCCCCCC)COC(=O)OCCN(CCO)C1CCC1 (centres unmarked) [Compound 12]
 |  |  | 5.905 | C=CCN(CCO)CCCOC(=O)OCC(COC(=O)CCCCCCC/C=C\C/C=C\CCCCC)COC(=O)CCCC(COC(=O)CCCCCCC)COC(=O)CCCCCCC (centres unmarked) [Compound 88]
89.87% | 0.069 | 158.9 nm | 7.088 | CCCCCCCCC(=O)OCC(COC(=O)CCCCCCCN(CCO)C1CCC1)COC(=O)CCCC(COC(=O)CCCCCCC)COC(=O)CCCCCCC (centres unmarked) [Compound 46]
93.21% | 0.087 | 108.4 nm | 7.229 | CCCCCCCCCCC(=O)OCC(COC(=O)CCCCN(CCO)C1CCC1)COC(=O)CCCC(COC(=O)CCCCCCC)COC(=O)CCCCCCC (centres unmarked) [Compound 48]
 |  |  | 6.895 | CCCCCCCCCCCCCCCC(=O)OCC(COC(=O)CCCCN(CCO)C1CCC1)COC(=O)CCCC(COC(=O)CCCCCCC)COC(=O)CCCCCCC (centres unmarked) [Compound 41]
93.46% | 0.04 | 95.19 nm | 6.766 | CCCCC/C=C\C/C=C\CCCCCCCC(=O)OCC(COC(=O)CCCCCCCN(CCO)C1CCC1)COC(=O)CCCC(COC(=O)CCCCCCC)COC(=O)CCCCCCC (centres unmarked) [Compound 43]
 |  |  | 6.111 | CCCCCCCCCCCCCCCCCC(=O)OCC(COC(=O)CCCC(COC(=O)CCCCCCC)COC(=O)CCCCCCC)COC(=O)OCCCN(CCO)C1CCCCC1 (centres unmarked) [Compound 65]
 |  |  | 7.076 | CCCCCCCCCCCCCCCCCC(=O)OCC(COC(=O)CCCCN(CCO)C1CCC1)COC(=O)CCCC(COC(=O)CCCCCCC)COC(=O)CCCCCCC (centres unmarked) [Compound 72]
 |  |  | 6.547 | CCCCCCCCCCCCCCCCCC(=O)OCC(COC(=O)CCCCN(CCO)C1CCCCCC1)COC(=O)CCCC(COC(=O)CCCCCCC)COC(=O)CCCCCCC (centres unmarked) [Compound 75]
 |  |  | 6.006 | CCCCCCCCCCCCCCCCCC(=O)OCC(COC(=O)CCCCN(CCO)CC(C)C)COC(=O)CCCC(COC(=O)CCCCCCC)COC(=O)CCCCCCC (centres unmarked) [Compound 97]
85.90% | 0.049 | 63.20 nm |  | CCCCC/C=C\C/C=C\CCCCCCCC(=O)OCC(COC(=O)CCCC(COC(=O)CCCCCCC)COC(=O)CCCCCCC)COC(=O)OCCN(CCO)C1CCCCC1 (centres unmarked) [Compound 8]
 |  |  | 6.887 | CCCCCCCCCC(=O)OCC(COC(=O)CCCCCCN(CCO)C1CCC1)COC(=O)CCCC(COC(=O)CCCCCCC)COC(=O)CCCCCCC (centres unmarked) [Compound 79]
83.76% | 0.053 | 71.21 nm |  | CCCCC/C=C\C/C=C\CCCCCCCC(=O)OCC(COC(=O)CCCC(COC(=O)CCCCCCC)COC(=O)CCCCCCC)COC(=O)OCCN(CCO)C1CCCC1 (centres unmarked) [Compound 33]
 |  |  | 7.288 | CCCCCCCCCCCC(=O)OCC(COC(=O)CCCCCN(CCO)C1CCC1)COC(=O)CCCC(COC(=O)CCCCCCC)COC(=O)CCCCCCC (centres unmarked) [Compound 51]
 |  |  | 7.019 | CCCCCCCCCCCCCCCCCC(=O)OCC(COC(=O)CCCCCN(CCO)C1CCC1)COC(=O)CCCC(COC(=O)CCCCC)COC(=O)CCCCCCC (centres unmarked) [Compound 61]
 |  |  | 7.217 | CCCCCCCCCC(=O)OCC(COC(=O)CCCCN(CCO)C1CCC1)COC(=O)CCCC(COC(=O)CCCCCCC)COC(=O)CCCCCCC (centres unmarked) [Compound 47]
